Measurements from patent publication US5583248A, “Amino acid derivatives having antiviral activity” (Hoffmann-La Roche Inc., priority 1991, dated 1996).

How the values were obtained:
HIV protease = target: T1, HIV protease (Human immunodeficiency virus type 1 group M subtype B, UniProt P04585); assay: in vitro inhibition of HIV protease; type: biochemical; details: substrate succinyl-Val-Ser-Gln-Asn-Phe-Pro-Ile isobutylamide; citrate buffer pH5.5; 37° C.; 50% inhibition; read-out: HIV protease inhibition I50
T1 construct: HIV protease was expressed in E. coli; made in house; host or cells: E. coli
Experimental: HIV protease was expressed in E. coli and partially purified from soluble extracts of the bacterium by ammonium sulphate fractionation (0-30%). Protease activity was assayed using the protected heptapeptide succinyl-Val-Ser-Gln-Asn-Phe-Pro-Ile isobutylamide as the substrate. Cleavage of the substrate was quantified by measuring the production of H-Pro-Ile isobutyl-amide by the spectrophotometric assay of N-terminal proline,
1.25 mM of substrate were dissolved in 125 mM of citrate buffer (pH5.5) containing 0.125 mg/ml of Tween 20. […] of a solution of various concentrations of the test compound (dissolved in methanol or dimethyl sulphoxide and diluted with water containing 0.1% Tween 20) and […] of protease were added to […] of the above buffered substrate. Digestion was carried out at 37° C. for a fixed period of time and was terminated by the addition of 1 ml of colour reagent [30 mg/ml of isatin and 1.5 mg/ml of 2-(4-chlorobenzoyl)benzoic acid in 10% acetone in ethanol (vol./vol.)]. The solution was heated in a water bath and then the pigmented residues were re-dissolved in 1 ml of 1% pyrogallol in 33% water in acetone (wt./vol./vol.), The optical density of the solution was measured spectrophotometrically at 599 nm, The formation of H-Pro-Ile isobutylamide in the presence of the test compound was compared with controls and the concentration of test compound required to give 50% inhibition (I50) was determined by means of a graph plotted from the various concentrations of test compound used.

[1] = system: HTLV-III (strain RF) grown in C8166 cells; assay: in vitro antiviral activity (activity against HIV); type: cell-based; details: Human immunodeficiency virus 1, C8166, 72 h, read-out: Activity against HIV I50
Experimental: This assay uses HTLV-III (strain RF) grown in C8166 cells (a human CD4^+ T lymphoblastoid line) using RPM1 1640 medium with bicarbonate buffer, antibiotics and 10% foetal bovine serum.
A suspension of cells is infected with ten times the TCID50 of virus and adsorption is allowed to proceed for 90 minutes at 37° C. The cells are washed three times with medium. The test is carried out in 6 ml tissue culture tubes containing 2×10^5 infected cells in 1.5 ml of medium. Test compounds are dissolved in either aqueous medium or dimethyl sulphoxide, according to solubility, and a […] solution of the test compound is added. The cultures are incubated at 37° C. for 72 hours in a humidified atmosphere containing 5% carbon dioxide in air. The cultures are then centrifuged and an aliquot of the supernatant is solubilized with Nonidet P40 and subjected to an antigen capture assay which uses a primary antiserum with particular reactivity against the viral p24 antigen and a horseradish peroxidase detection system. Colour generation is measured spectrophotometrically and is plotted against the concentration of test compound. The concentration which produces 50% protection is determined (I50).

SMILES	IC50 (HIV protease)	IC50 [1]
CC(C)(C)NC(=O)[C@@H]1CCCC[C@H]1C[C@@H](O)[C@H](Cc1ccccc1)NC(=O)[C@H](CC#N)NC(=O)OCc1ccccc1 [Compound F, 2(S)-[3(S)-[[N-(benzyloxycarbonyl)-3-cyano-L-alanyl]amino]-2(R)-hydroxy-4-phenylbutyl]-N-tert.butyl-1(R)-cyclohexanecarboxamide]	2 nM	–
CC(C)(C)NC(=O)[C@@H]1CCCC[C@H]1C[C@@H](O)[C@H](Cc1ccccc1)NC(=O)[C@H](CC(N)=O)NC(=O)c1ccc2ccccc2n1 [Compound C, 2(S)-[3(S)-[[N-(2-quinolylcarbonyl)-L-asparaginyl]amino]-2(R)-hydroxy-4-phenylbutyl]-N-tert.butyl-1(R)-cyclohexanecarboxamide]	–	4 nM
CC(C)(C)NC(=O)[C@@H]1CCCC[C@H]1C[C@@H](O)[C@H](Cc1ccccc1)NC(=O)[C@H](CC(N)=O)NC(=O)OCc1ccccc1 [Compound A, 2(S)-[3(S)-[[N-(benzyloxycarbonyl)-L-asparaginyl]amino]-2(R)-hydroxy-4-phenylbutyl]-N-tert.butyl-1(R)-cyclohexanecarboxamide]	2 nM	46 nM
CSC[C@H](NC(=O)OCc1ccccc1)C(=O)N[C@@H](Cc1ccccc1)[C@H](O)C[C@@H]1CCCC[C@H]1C(=O)NC(C)(C)C [Compound D, 2(S)-[3(S)-[[N-(benzyloxycarbonyl)-S-methyl-L-cysteinyl]amino]-2(R)-hydroxy-4-phenylbutyl]-N-tert.butyl-1(R)-cyclohexanecarboxamide]	1.3 nM	–
COC(=O)C[C@H](NC(=O)OCc1ccccc1)C(=O)N[C@@H](Cc1ccccc1)[C@H](O)C[C@@H]1CCCC[C@H]1C(=O)NC(C)(C)C [Compound E, 2(S)-[3(S)-[[N-(benzyloxycarbonyl)-O-methyl-L-aspartyl]amino]-2(R)-hydroxy-4-phenylbutyl]-N-tert.butyl-1(R)-cyclohexanecarboxamide]	1.9 nM	–
CC(C)(C)NC(=O)[C@@H]1CCCC[C@@H]1C[C@@H](O)[C@H](Cc1ccccc1)NC(=O)[C@H](CC(N)=O)NC(=O)OCc1ccccc1 [Compound B, 2(R)-[3(S)-[[N-(benzyloxycarbonyl)-L-asparaginyl]amino]-2(R)-hydroxy-4-phenylbutyl]-N-tert.butyl-1(R)-cyclohexanecarboxamide]	57 nM	1000 nM
